{"source": "patent US9556135B2", "about": "“Amino-dihydrothiazine and amino-dioxido dihydrothiazine compounds as beta-secretase antagonists and methods of use” (Amgen Inc., priority 2012, dated 2017)", "test_system": "Abeta 40", "test": "In vivo inhibition of beta-secretase: Abeta 40 reduction in CSF and brain of the rat", "settings": "10 mpk (unless otherwise noted), after 4 hrs", "text": "In Vivo Inhibition of Beta-Secretase\nSeveral animal models, including mouse, rat, dog, and monkey, may be used to screen for inhibition of beta-secretase activity in vivo following administration of a test compound sample. Animals used in this invention can be wild type, transgenic, or gene knockout animals. […] One to twenty-four hours following the administration of compound, animals are sacrificed, and brains as well as cerebrospinal fluid (CSF) and plasma are removed for analysis of A-beta levels and drug or test compound concentrations (Dovey et al., 2001, Journal of Neurochemistry, 76, 173-181) Beginning at time 0, animals are administered by oral gavage, or other means of delivery such as intravenous injection, an inhibitory test compound of up to 100 mg/kg in a standard, conventional formulation, such as 2% hydroxypropyl methylcellulose, 1% Tween80. A separate group of animals receive 2% hydroxypropyl methylcellulose, 1% Tween80 alone, containing no test compound, and serve as a vehicle-control group. At the end of the test period, animals are sacrificed and brain tissues, plasma or cerebrospinal fluid are collected. Brains are either homogenized in 10 volumes (w/v) of 0.2% diethylamine (DEA) in 50 mM NaCl (Best et al., 2005, Journal of Pharmacology and Experimental Therapeutics, 313, 902-908), or in 10 volumes of 0.5% TritonX-100 in Tris-buffered saline (pH at about 7.6). Homogenates are centrifuged at 355,000 g, 4° C. for 30 minutes. CSF or brain supernatants are then analyzed for the presence of A-beta peptide by specific sandwich ELISA assays based on ECL (Electrochemiluminescence) technology. For example, rat Abeta40 is measured using biotinylated-4G8 (Signet) as a capture antibody and Fab40 (an in-house antibody specific to the C-terminal of Abeta40) as a detection antibody.\nActual vehicles used: Oral: 2% HPMC, 1% Tween80, pH 2.2", "data": [{"smiles": "CC1(C)C(N)=N[C@](CF)(c2cc(NC(=O)c3ccc(Cl)cn3)ccc2F)CS1(=O)=O", "note": "[Example 193, (S)—N-(3-(5-amino-3-(fluoromethyl)-6,6-dimethyl-1,1-dioxido-3,6-dihydro-2H-1,4-thiazin-3-yl)-4-fluorophenyl)-5-chloropicolinamide]", "values": [{"measurement": "% reduction of rat CSF levels at 10 pmk", "value": 57, "unit": "%"}, {"measurement": "% reduction of rat brain levels at 10 mpk", "value": 30, "unit": "%"}]}, {"smiles": "Cc1cc(Cl)cnc1C(=O)Nc1ccc(F)c([C@]2(CF)CS(=O)(=O)C3(CC3)C(N)=N2)c1", "note": "[Example 216, (S)—N-(3-(8-amino-6-(fluoromethyl)-4,4-dioxido-4-thia-7-azaspiro[2.5]oct-7-en-6-yl)-4-fluorophenyl)-5-chloro-3-methylpicolinamide]", "values": [{"measurement": "% reduction of rat CSF levels at 10 pmk", "value": 57, "unit": "%"}, {"measurement": "% reduction of rat brain levels at 10 mpk", "value": 14, "unit": "%"}]}, {"smiles": "COc1cnc2c(Nc3cnc(F)c([C@]4(C)CS(=O)(=O)C(C)(C)C(N)=N4)c3)ncc(F)c2c1", "note": "[Example 219, N-(5-((3R)-5-amino-3,6,6-trimethyl-1,1-dioxido-3,6-dihydro-2H-1,4-thiazin-3-yl)-6-fluoro-3-pyridinyl)-5-fluoro-3-methoxy-1,7-naphthyridin-8-amine]", "values": [{"measurement": "% reduction of rat CSF levels at 10 pmk", "value": 42, "unit": "%"}, {"measurement": "% reduction of rat brain levels at 10 mpk", "value": 9, "unit": "%"}]}, {"smiles": "COc1cnc2c(Nc3cnc(F)c([C@]4(C)CS(=O)(=O)C(C)(C)C(N)=N4)c3)nccc2n1", "note": "[Example 222, N-(5-((3R)-5-amino-3,6,6-trimethyl-1,1-dioxido-3,6-dihydro-2H-1,4-thiazin-3-yl)-6-fluoro-3-pyridinyl)-2-methoxypyrido[3,4-b]pyrazin-5-amine]", "values": [{"measurement": "% reduction of rat CSF levels at 10 pmk", "value": 65, "unit": "%"}, {"measurement": "% reduction of rat brain levels at 10 mpk", "value": 49, "unit": "%"}]}, {"smiles": "CC1(C)C(N)=N[C@](C)(c2cc(Nc3ncnc4cc(Cl)cnc34)ccc2F)C(F)S1(=O)=O", "note": "(stereo partly drawn) [Example 228, N-(3-((3R)-5-amino-2-fluoro-3,6,6-trimethyl-1,1-dioxido-3,6-dihydro-2H-1,4-thiazin-3-yl)-4-fluorophenyl)-7-chloropyrido[3,2-d]pyrimidin-4-amine]", "values": [{"measurement": "% reduction of rat CSF levels at 10 pmk", "value": 67, "unit": "%"}, {"measurement": "% reduction of rat brain levels at 10 mpk", "value": 58, "unit": "%"}]}, {"smiles": "CC1(C)C(N)=N[C@](C)(c2cc(Nc3ncnc4cc(C#N)cnc34)ccc2F)C(F)S1(=O)=O", "note": "(stereo partly drawn) [Example 229, 4-((3-((3R)-5-amino-2-fluoro-3,6,6-trimethyl-1,1-dioxido-3,6-dihydro-2H-1,4-thiazin-3-yl)-4-fluorophenyl)amino)pyrido[3,2-d]pyrimidine-7-carbonitrile]", "values": [{"measurement": "% reduction of rat CSF levels at 10 pmk", "value": 61, "unit": "%"}, {"measurement": "% reduction of rat brain levels at 10 mpk", "value": 43, "unit": "%"}]}, {"smiles": "CC1(C)C(N)=N[C@](CF)(c2cc(Nc3ncc(F)c4cc(Cl)cnc34)ccc2F)CS1(=O)=O", "note": "[Example 233, N-(3-((3S)-5-amino-3-(fluoromethyl)-6,6-dimethyl-1,1-dioxido-3,6-dihydro-2H-1,4-thiazin-3-yl)-4-fluorophenyl)-3-chloro-5-fluoro-1,7-naphthyridin-8-amine]", "values": [{"measurement": "% reduction of rat CSF levels at 10 pmk", "value": 25, "unit": "%"}, {"measurement": "% reduction of rat brain levels at 10 mpk", "value": 0, "unit": "%"}]}, {"smiles": "CC1(C)C(N)=N[C@](CF)(c2cc(Nc3ncnc4cc(Cl)cnc34)ccc2F)CS1(=O)=O", "note": "[Example 235, N-(3-((3S)-5-amino-3-(fluoromethyl)-6,6-dimethyl-1,1-dioxido-3,6-dihydro-2H-1,4-thiazin-3-yl)-4-fluorophenyl)-7-chloropyrido[3,2-d]pyrimidin-4-amine]", "values": [{"measurement": "% reduction of rat CSF levels at 10 pmk", "value": 38, "unit": "%"}, {"measurement": "% reduction of rat brain levels at 10 mpk", "value": 14, "unit": "%"}]}, {"smiles": "CC1(C)C(N)=N[C@](CF)(c2cc(Nc3ncnc4cc(C#N)cnc34)ccc2F)CS1(=O)=O", "note": "[Example 236, 4-((3-((3S)-5-amino-3-(fluoromethyl)-6,6-dimethyl-1,1-dioxido-3,6-dihydro-2H-1,4-thiazin-3-yl)-4-fluorophenyl)amino)pyrido[3,2-d]pyrimidine-7-carbonitrile]", "values": [{"measurement": "% reduction of rat CSF levels at 10 pmk", "value": 35, "unit": "%"}, {"measurement": "% reduction of rat brain levels at 10 mpk", "value": 1, "unit": "%"}]}, {"smiles": "CC#CCOc1cnc(C(=O)Nc2ccc(F)c([C@]3(C)CS(=O)(=O)[C@@](C)(F)C(N)=N3)c2)cn1", "note": "[Example 317, N-(3-((3R,6R)-5-amino-6-fluoro-3,6-dimethyl-1,1-dioxido-3,6-dihydro-2H-1,4-thiazin-3-yl)-4-fluorophenyl)-5-(2-butyn-1-yloxy)-2-pyrazinecarboxamide]", "values": [{"measurement": "% reduction of rat CSF levels at 10 pmk", "value": 23, "unit": "%"}, {"measurement": "% reduction of rat brain levels at 10 mpk", "value": 0, "unit": "%"}]}, {"smiles": "Cc1cc(OC(F)F)cnc1C(=O)Nc1ccc(F)c([C@]2(C)CS(=O)(=O)[C@@](C)(F)C(N)=N2)c1", "note": "[Example 321, N-(3-((3R,6R)-5-amino-6-fluoro-3,6-dimethyl-1,1-dioxido-3,6-dihydro-2H-1,4-thiazin-3-yl)-4-fluorophenyl)-5-(difluoromethoxy)-3-methyl-2-pyridinecarboxamide]", "values": [{"measurement": "% reduction of rat CSF levels at 10 pmk", "value": 44, "unit": "%"}, {"measurement": "% reduction of rat brain levels at 10 mpk", "value": 37, "unit": "%"}]}, {"smiles": "Cc1cc(C#N)cnc1C(=O)Nc1ccc(F)c([C@]2(C)CS(=O)(=O)[C@@](C)(F)C(N)=N2)c1", "note": "[Example 324, N-(3-((3R,6R)-5-amino-6-fluoro-3,6-dimethyl-1,1-dioxido-3,6-dihydro-2H-1,4-thiazin-3-yl)-4-fluorophenyl)-5-cyano-3-methyl-2-pyridinecarboxamide]", "values": [{"measurement": "% reduction of rat CSF levels at 10 pmk", "value": 44, "unit": "%"}, {"measurement": "% reduction of rat brain levels at 10 mpk", "value": 29, "unit": "%"}]}, {"smiles": "CC1(C)C(N)=N[C@](C)(c2cc(NC(=O)c3ncc(Cl)cc3F)ccc2F)C(F)S1(=O)=O", "note": "(stereo partly drawn) [Example 329, N-(3-((3R)-5-amino-2-fluoro-3,6,6-trimethyl-1,1-dioxido-3,6-dihydro-2H-1,4-thiazin-3-yl)-4-fluorophenyl)-5-chloro-3-fluoro-2-pyridinecarboxamide]", "values": [{"measurement": "% reduction of rat CSF levels at 10 pmk", "value": 27, "unit": "%"}, {"measurement": "% reduction of rat brain levels at 10 mpk", "value": 20, "unit": "%"}]}, {"smiles": "Cc1cc(OC(F)F)cnc1C(=O)Nc1ccc(F)c([C@@]2(C)N=C(N)C(C)(C)S(=O)(=O)C2F)c1", "note": "(stereo partly drawn) [Example 330, N-(3-((3R)-5-amino-2-fluoro-3,6,6-trimethyl-1,1-dioxido-3,6-dihydro-2H-1,4-thiazin-3-yl)-4-fluorophenyl)-5-(difluoromethoxy)-3-methyl-2-pyridinecarboxamide]", "values": [{"measurement": "% reduction of rat CSF levels at 10 pmk", "value": 78, "unit": "%"}, {"measurement": "% reduction of rat brain levels at 10 mpk", "value": 72, "unit": "%"}]}, {"smiles": "Cc1cc(Cl)cnc1C(=O)Nc1ccc(F)c([C@@]2(C)N=C(N)C(C)(C)S(=O)(=O)C2F)c1", "note": "(stereo partly drawn) [Example 331, N-(3-((3R)-5-amino-2-fluoro-3,6,6-trimethyl-1,1-dioxido-3,6-dihydro-2H-1,4-thiazin-3-yl)-4-fluorophenyl)-5-chloro-3-methyl-2-pyridinecarboxamide]", "values": [{"measurement": "% reduction of rat CSF levels at 10 pmk", "value": 67, "unit": "%"}, {"measurement": "% reduction of rat brain levels at 10 mpk", "value": 59, "unit": "%"}]}, {"smiles": "CC#CCOc1cnc(C(=O)Nc2ccc(F)c([C@@]3(C)N=C(N)C(C)(C)S(=O)(=O)C3F)c2)cn1", "note": "(stereo partly drawn) [Example 332, N-(3-((3R)-5-amino-2-fluoro-3,6,6-trimethyl-1,1-dioxido-3,6-dihydro-2H-1,4-thiazin-3-yl)-4-fluorophenyl)-5-(2-butyn-1-yloxy)-2-pyrazinecarboxamide]", "values": [{"measurement": "% reduction of rat CSF levels at 10 pmk", "value": 24, "unit": "%"}, {"measurement": "% reduction of rat brain levels at 10 mpk", "value": 11, "unit": "%"}]}, {"smiles": "CC1(C)C(N)=N[C@](C)(c2cc(NC(=O)c3cnc(OCC(F)(F)F)cn3)ccc2F)CS1(=O)=O", "note": "[Example 346, N-(3-((3R)-5-amino-3,6,6-trimethyl-1,1-dioxido-3,6-dihydro-2H-1,4-thiazin-3-yl)-4-fluorophenyl)-5-(2,2,2-trifluoroethoxy)-2-pyrazinecarboxamide]", "values": [{"measurement": "% reduction of rat CSF levels at 10 pmk", "value": 69, "unit": "%"}, {"measurement": "% reduction of rat brain levels at 10 mpk", "value": 48, "unit": "%"}]}, {"smiles": "Cc1cc(Cl)cnc1C(=O)Nc1cnc(F)c([C@]2(C)CS(=O)(=O)C3(CCC3)C(N)=N2)c1", "note": "[Example 359, N-(5-((7R)-9-amino-7-methyl-5,5-dioxido-5-thia-8-azaspiro[3.5]non-8-en-7-yl)-6-fluoro-3-pyridinyl)-5-chloro-3-methyl-2-pyridinecarboxamide]", "values": [{"measurement": "% reduction of rat CSF levels at 10 pmk", "value": 55, "unit": "%"}, {"measurement": "% reduction of rat brain levels at 10 mpk", "value": 24, "unit": "%"}]}, {"smiles": "COc1cnc(C(=O)Nc2ccc(F)c([C@]3(CF)CS(=O)(=O)C(C)(C)C(N)=N3)c2)c(C)c1", "note": "[Example 377, N-(3-((3S)-5-amino-3-(fluoromethyl)-6,6-dimethyl-1,1-dioxido-3,6-dihydro-2H-1,4-thiazin-3-yl)-4-fluorophenyl)-5-methoxy-3-methyl-2-pyridinecarboxamide]", "values": [{"measurement": "% reduction of rat CSF levels at 10 pmk", "value": 68, "unit": "%"}, {"measurement": "% reduction of rat brain levels at 10 mpk", "value": 53, "unit": "%"}]}, {"smiles": "CC1(C)C(N)=N[C@](CF)(c2cc(Nc3nccc4cc(C#N)cnc34)ccc2F)CS1(=O)=O", "note": "[Example 387, 8-((3-((3S)-5-amino-3-(fluoromethyl)-6,6-dimethyl-1,1-dioxido-3,6-dihydro-2H-1,4-thiazin-3-yl)-4-fluorophenyl)amino)-1,7-naphthyridine-3-carbonitrile]", "values": [{"measurement": "% reduction of rat CSF levels at 10 pmk", "value": 43, "unit": "%"}, {"measurement": "% reduction of rat brain levels at 10 mpk", "value": 27, "unit": "%"}]}, {"smiles": "Cc1cc(Cl)cnc1C(=O)Nc1ccc(F)c([C@]2(C)CS(=O)(=O)[C@@](C)(F)C(N)=N2)c1", "note": "[Example 388, N-(3-((3R,6R)-5-amino-6-fluoro-3,6-dimethyl-1,1-dioxido-3,6-dihydro-2H-1,4-thiazin-3-yl)-4-fluorophenyl)-5-chloro-3-methyl-2-pyridinecarboxamide]", "values": [{"measurement": "% reduction of rat CSF levels at 10 pmk", "value": 33, "unit": "%"}, {"measurement": "% reduction of rat brain levels at 10 mpk", "value": 7, "unit": "%"}]}]}
